# Where a name gives a salt, the structure may show the parent alone. Read-outs that look alike come from different tables or passages of the source.
# Assays:
# SHV-5 β-lactamase = target: T1, SHV-5 β-lactamase (Klebsiella pneumoniae, UniProt P0A3M1); experiment: β-lactamase enzyme inhibition assay (nitrocefin substrate), SHV-5; type: biochemical
# T1 construct: expressed as native untagged proteins; made in house; host or cells: E. coli BL21(DE3)
# Method in brief: (§1)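 Untagged recombinant β-lactamases from E. coli BL21(DE3), purified by ion exchange and gel filtration; 10 min, 37 °C preincubation with compound in PBS pH 7.0; nitrocefin 100 μM final; A486 kinetics, 10 min; IC50 from max rate vs control.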
# CTX-M15 β-lactamase = target: T2, CTX-M15 β-lactamase (Escherichia coli, UniProt Q9EXV5); experiment: β-lactamase enzyme inhibition assay (nitrocefin substrate), CTXM-15; type: biochemical
# T2 construct: expressed as native untagged proteins; made in house; host or cells: E. coli BL21(DE3)
# T2 sequence (Q9EXV5 entry or part of it): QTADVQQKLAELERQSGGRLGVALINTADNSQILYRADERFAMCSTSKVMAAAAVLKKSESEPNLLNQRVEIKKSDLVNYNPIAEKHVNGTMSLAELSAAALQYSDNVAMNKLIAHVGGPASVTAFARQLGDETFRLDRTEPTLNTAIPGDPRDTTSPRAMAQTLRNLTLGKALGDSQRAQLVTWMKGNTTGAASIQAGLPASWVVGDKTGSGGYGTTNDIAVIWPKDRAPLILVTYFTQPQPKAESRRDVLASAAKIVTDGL
# Method in brief: as §1
# p99 AmpC β-lactamase = target: T3, p99 AmpC β-lactamase (Enterobacter cloacae, UniProt P05364); experiment: β-lactamase enzyme inhibition assay (nitrocefin substrate), P99 AmpC; type: biochemical
# T3 construct: expressed as native untagged proteins; made in house; host or cells: E. coli BL21(DE3)
# T3 sequence (P05364 21-381): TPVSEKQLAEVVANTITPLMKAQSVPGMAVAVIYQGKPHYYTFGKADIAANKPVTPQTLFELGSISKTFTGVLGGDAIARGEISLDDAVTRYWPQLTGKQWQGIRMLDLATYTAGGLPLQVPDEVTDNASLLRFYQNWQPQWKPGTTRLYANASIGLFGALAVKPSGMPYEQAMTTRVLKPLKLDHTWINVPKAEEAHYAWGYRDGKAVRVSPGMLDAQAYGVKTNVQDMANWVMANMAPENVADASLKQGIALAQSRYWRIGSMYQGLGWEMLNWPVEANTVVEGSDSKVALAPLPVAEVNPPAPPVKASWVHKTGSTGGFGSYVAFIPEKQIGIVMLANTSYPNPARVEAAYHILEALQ
# Method in brief: as §1
# KPC-2 β-lactamase = target: T4, KPC-2 β-lactamase (Klebsiella pneumoniae, UniProt Q9F663); experiment: β-lactamase enzyme inhibition assay (nitrocefin substrate), KPC-2; type: biochemical
# T4 construct: expressed as native untagged proteins; made in house; host or cells: E. coli BL21(DE3)
# T4 sequence (Q9F663 25-293 limits assumed): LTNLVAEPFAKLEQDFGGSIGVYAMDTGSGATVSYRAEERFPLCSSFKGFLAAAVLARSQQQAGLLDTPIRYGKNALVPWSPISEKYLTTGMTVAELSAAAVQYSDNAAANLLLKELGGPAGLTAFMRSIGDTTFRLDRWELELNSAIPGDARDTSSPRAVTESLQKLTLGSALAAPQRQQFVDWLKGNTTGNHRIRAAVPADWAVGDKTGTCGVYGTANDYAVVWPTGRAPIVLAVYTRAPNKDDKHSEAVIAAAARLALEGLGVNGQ
# Method in brief: as §1
# [1] = target: T5, VIM-2 metallo β-lactamase (Pseudomonas aeruginosa, UniProt Q9K2N0); experiment: β-lactamase enzyme inhibition assay (nitrocefin substrate), VIM-2; type: biochemical; details: nitrocefin 100 μM, 37° C., PBS pH 7.0; read-out: VIM-2 IC50
# T5 construct: made in house
# Method in brief: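 VIM-2 was expressed untagged in E. coli BL21(DE3) and purified by two Q sepharose anion-exchange runs plus gel filtration to >90% purity. Compounds at 100–0.005 μM in PBS pH 7.0 were preincubated with enzyme for 10 min at 37° C, then nitrocefin was added at 100 μM final. Hydrolysis was followed kinetically at 486 nm for 10 min; IC50 is the concentration halving the initial rate relative to no-inhibitor wells.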
# OXA-23 β-lactamase = target: T6, OXA-23 β-lactamase (Acinetobacter baumannii, UniProt Q9L4P2); experiment: β-lactamase enzyme inhibition assay (nitrocefin substrate), OXA-23 crude extract; type: biochemical; details: nitrocefin 100 μM, 37° C., PBS pH 7.0; read-out: OXA-23 IC50
# T6 construct: crude β-lactamase extracts were prepared from 20 ml overnight cultures; endogenous in cells; host or cells: Acinetobacter baumannii cells containing OXA-23 (crude freeze-thaw extract)
# T6 sequence (Q9L4P2 18-273): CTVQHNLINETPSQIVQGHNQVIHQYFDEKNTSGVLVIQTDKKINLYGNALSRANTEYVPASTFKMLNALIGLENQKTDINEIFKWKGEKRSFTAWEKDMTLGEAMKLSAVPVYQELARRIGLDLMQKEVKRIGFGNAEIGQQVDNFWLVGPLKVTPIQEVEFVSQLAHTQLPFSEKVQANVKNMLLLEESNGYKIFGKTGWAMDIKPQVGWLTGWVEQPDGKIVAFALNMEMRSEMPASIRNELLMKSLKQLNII
# Method in brief: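 Crude enzyme came from freeze-thaw extracts of mid-log OXA-23-carrying A. baumannii grown in MH-II broth at 37° C. Inhibitors (100–0.005 μM in PBS pH 7.0) were preincubated with the enzyme for 10 min at 37° C, then 100 μM nitrocefin (final) was added and read kinetically at 486 nm for 10 min. IC50 was taken from initial hydrolysis rates relative to uninhibited controls.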
# [2] = tested on: E. coli expressing the Class A ESBL SHV-5; experiment: In vitro antibacterial assay of β-lactamase inhibition (broth microdilution MIC), E. coli SHV-5; type: cell-based; details: in presence of Ceftazidime 8 μg/ml (Examples 1-56)
# Method in brief: (§2)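 Broth microdilution in cation-adjusted Mueller Hinton broth; strains pre-grown 3–5 h with 50 μg/mL ampicillin. Test compounds 2-fold serially diluted to a final 8–0.015 μg/mL alongside a β-lactam, CLSI inoculum. MIC read visually after 16–20 h at 37° C.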
# [3] = tested on: K. pneumoniae expressing the Class A Extended Spectrum Beta-Lactamase (ESBL) CTX-M-15; experiment: In vitro antibacterial assay of β-lactamase inhibition (broth microdilution MIC), K. pneumoniae CTX-M-15; type: cell-based; details: in presence of Ceftazidime 8 μg/ml (Examples 1-56)
# Method in brief: as §2
# [4] = tested on: E. cloacae expressing the Class C P99+; experiment: In vitro antibacterial assay of β-lactamase inhibition (broth microdilution MIC), E. cloacae P99+; type: cell-based; details: in presence of Ceftazidime 8 μg/ml (Examples 1-56)
# Method in brief: as §2
# [5] = tested on: K. pneumoniae expressing the Class A carbapenemase KPC-2; experiment: microbe, parasite or virus in culture; type: cell-based; details: in presence of Ceftazidime 8 μg/ml (Examples 1-56)
# Method in brief: as §2
# [6] = tested on: P. aeruginosa expressing the Class B metallo β-lactamase VIM-2; experiment: In vitro antibacterial assay of β-lactamase inhibition (broth microdilution MIC), P. aeruginosa VIM-2; type: cell-based; details: in presence of Ceftazidime 16 μg/mL (Examples 1-56)
# Method in brief: as §2
# [7] = nitrocefin 100 μM, 37° C., PBS pH 7.0, read-out: P99 AmpC IC50
# T1 sequence (P0A3M1 22-286): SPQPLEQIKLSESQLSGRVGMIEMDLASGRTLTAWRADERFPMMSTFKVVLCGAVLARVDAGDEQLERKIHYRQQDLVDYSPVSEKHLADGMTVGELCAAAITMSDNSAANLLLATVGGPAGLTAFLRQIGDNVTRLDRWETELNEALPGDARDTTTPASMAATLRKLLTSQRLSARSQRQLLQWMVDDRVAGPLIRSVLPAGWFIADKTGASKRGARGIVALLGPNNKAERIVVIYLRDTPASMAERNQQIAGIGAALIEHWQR
SMILES,IC50 (SHV-5 β-lactamase),IC50 (CTX-M15 β-lactamase),IC50 (p99 AmpC β-lactamase; [7]),IC50 (KPC-2 β-lactamase),IC50 [1],IC50 (OXA-23 β-lactamase),"MIC of example compound, E. coli SHV-5 [2]","MIC of example compound, K. pneumoniae CTX-M-15 [3]","MIC of example compound, E. cloacae P99+ [4]","MIC of example compound, K. pneumoniae KPC-2 [5]","MIC of example compound, P. aeruginosa VIM-2 [6]",IC50 (p99 AmpC β-lactamase)
"CN(C)Cc1ccc(CC(=O)N[C@@H](Cc2cccc(C(=O)O)c2O)B(O)O)cc1 [Example 36, (1R)-[2-(4-dimethylaminomethyl-phenyl)-acetylamino]-(3-carboxy-2hydroxy)benzyl-methylboronic acid formate]",2 nM,4 nM,2 nM,5 nM,593 nM,191 nM,0.5 µg/mL,0.12 µg/mL,0.25 µg/mL,0.06 µg/mL,>8 µg/mL,
"O=C(Cc1ccc(CN2CCNCC2)cc1)N[C@@H](Cc1cccc(C(=O)O)c1O)B(O)O [Example 37, (1R)-[2-(4-piperazin-1-ylmethyl-phenyl)-acetylamino]-(3-carboxy-2hydroxy)benzyl-methylboronic acid formate]",2 nM,7 nM,2 nM,9 nM,785 nM,83 nM,2 µg/mL,2 µg/mL,2 µg/mL,0.03 µg/mL,>8 µg/mL,
"O=C(Cc1ccc(CN(CCO)CCO)cc1)N[C@@H](Cc1cccc(C(=O)O)c1O)B(O)O [Example 39, (1R)-[2-(4-{[bis-(2-hydroxy-ethyl)-amino]-methyl}-phenyl)-acetylamino]-(3-carboxy-2-hydroxy)benzyl-methylboronic acid formate]",970 nM,4 nM,12 nM,26 nM,469 nM,167 nM,0.5 µg/mL,0.5 µg/mL,2 µg/mL,0.03 µg/mL,>8 µg/mL,
"C[N+]1(Cc2ccc(CC(=O)N[C@@H](Cc3cccc(C(=O)O)c3O)B(O)O)cc2)CCOCC1 [Example 41, 4-(4-{[2-(3-carboxy-2-hydroxy-phenyl)-1-borono-ethylcarbamoyl]-methyl}-benzyl)-4-methyl-morpholin-4-ium formate]",4 nM,2 nM,,10 nM,> 1000 nM,201 nM,0.5 µg/mL,0.25 µg/mL,1 µg/mL,0.03 µg/mL,>8 µg/mL,20 nM
"Cl.Nc1cncc(C(=O)N[C@@H](Cc2cccc(C(=O)O)c2O)B(O)O)c1 [Example 44, (2R)-3-{[2-(5-amino-pyridine-3-carbonyl)-amino]-2-borono-ethyl}-2-hydroxy-benzoic acid hydrochloride]",70 nM,2 nM,1 nM,30 nM,690 nM,120 nM,1 µg/mL,0.25 µg/mL,1 µg/mL,0.015 µg/mL,>8 µg/mL,
"Nc1cc(CC(=O)N[C@@H](Cc2cccc(C(=O)O)c2O)B(O)O)ccn1 [Example 45, (2R)-3-{2-[(2-amino-pyridin-4-yl-acetyl)-amino]-2-borono-ethyl}-2-hydroxy-benzoic acid formate]",10 nM,0.5 nM,,6 nM,811 nM,113 nM,0.03 µg/mL,0.03 µg/mL,0.06 µg/mL,0.007 µg/mL,>8 µg/mL,2 nM
"Br.CC(C)(O/N=C(\C(=O)N[C@@H](Cc1cccc(C(=O)O)c1O)B(O)O)c1csc(N)n1)C(=O)O [Example 48, 3-{2(R)-[2-(2-amino-thiazol-4-yl)-2-(1-carboxy-1-methyl-ethoxyimino)-acetylamino]-2-borono-ethyl}-2-hydroxy-benzoic acid hydrobromide]",4 nM,12 nM,10 nM,70 nM,> 1000 nM,670 nM,>8 µg/mL,>8 µg/mL,>8 µg/mL,2 µg/mL,>8 µg/mL,
"Cl.Nc1nc(/C(=N/O)C(=O)N[C@@H](Cc2cccc(C(=O)O)c2O)B(O)O)cs1 [Example 49, 3-{2(R)-[2-(2-amino-thiazol-4-yl)-2(Z)-hydroxyimino-acetylamino]-2-borono-ethyl}-2-hydroxy-benzoic acid hydrochloride]",4 nM,11 nM,2 nM,34 nM,590 nM,17 nM,2 µg/mL,2 µg/mL,2 µg/mL,0.12 µg/mL,>8 µg/mL,
"C/C(=N/O)C(=O)N[C@@H](Cc1cccc(C(=O)O)c1O)B(O)O [Example 54, 3-[2(R)-(2-hydroxyimino-propionylamino)-2-borono-ethyl]-2-hydroxy-benzoic acid]",48 nM,5 nM,2 nM,10 nM,> 1000 nM,494 nM,2 µg/mL,1 µg/mL,1 µg/mL,0.03 µg/mL,>8 µg/mL,
"CC/C(=N/O)C(=O)N[C@@H](Cc1cccc(C(=O)O)c1O)B(O)O [Example 55, 3-[2(R)-(2-hydroxyimino-butyrylamino)-2-borono-ethyl]-2-hydroxy-benzoic acid]",120 nM,1 nM,0.5 nM,6 nM,> 1000 nM,67 nM,2 µg/mL,2 µg/mL,1 µg/mL,0.06 µg/mL,>8 µg/mL,
"CCC(=O)C(=O)N[C@@H](Cc1cccc(C(=O)O)c1O)B(O)O [Example 56, 3-[2(R)-(2-oxo-butyrylamino)-2-borono-ethyl]-2-hydroxy-benzoic acid]",195 nM,11 nM,2 nM,24 nM,> 1000 nM,31 nM,>8 µg/mL,4 µg/mL,2 µg/mL,0.25 µg/mL,>8 µg/mL,

# Reference: patent US20100292185A1, “BETA-LACTAMASE INHIBITORS” (priority 2009, published 2010)
